# Source: patent US9951089B2, “Methods of treating a fatty acid amide hydrolase-mediated condition” (INFINITY PHARMACEUTICALS, INC., priority 2010, dated 2018)
# Target: T1, rat FAAH (Rattus norvegicus, UniProt P97612)
# T1 construct: encoding for amino acids 32-579 and an N-terminal His-tag; His-tag (N); made in house; host or cells: E. coli BL21 (DE3)
# T1 sequence (P97612 32-579): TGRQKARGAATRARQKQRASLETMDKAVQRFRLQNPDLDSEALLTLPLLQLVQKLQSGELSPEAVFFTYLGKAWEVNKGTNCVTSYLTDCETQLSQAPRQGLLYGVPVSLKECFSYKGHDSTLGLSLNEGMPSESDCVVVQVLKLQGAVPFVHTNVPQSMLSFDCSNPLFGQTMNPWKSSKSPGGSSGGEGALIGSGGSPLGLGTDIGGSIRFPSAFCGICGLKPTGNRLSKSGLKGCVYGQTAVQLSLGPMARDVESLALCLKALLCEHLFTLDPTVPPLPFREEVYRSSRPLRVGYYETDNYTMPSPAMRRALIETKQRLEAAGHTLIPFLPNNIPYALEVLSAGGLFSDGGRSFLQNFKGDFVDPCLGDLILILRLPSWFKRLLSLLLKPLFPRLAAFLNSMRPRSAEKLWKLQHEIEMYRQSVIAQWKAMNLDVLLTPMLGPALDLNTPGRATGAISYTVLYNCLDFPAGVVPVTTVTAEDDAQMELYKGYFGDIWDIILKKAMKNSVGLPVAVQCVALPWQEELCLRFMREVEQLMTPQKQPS
# Assay: Ki determination, rat FAAH (AMC-arachidonoyl amide hydrolysis, fluorescence end point)
# Type: biochemical
# Conditions: rFAAH 6 nM, substrate 20 μM, 30 min preincubation, 4 hours at room temperature
# Protocol: An N-terminal transmembrane domain deleted rat FAAH (rFAAH) was cloned as described in Patricelli et al., Biochemistry (1998) 37:15177-15187, encoding for amino acids 32-579 and an N-terminal His-tag, herein referred to as rFAAH. E. coli BL21 (DE3) were transformed according to manufacturer protocols (Invitrogen) and rFAAH was expressed and purified from a modified procedure described in Patricelli et al., 1998.
# Briefly, 8 L of cells were cultured to an OD600nm of 0.6 at 37° C., and FAAH expression induced by 1 mM IPTG, followed by 4 hours of growth. Cells were pelleted by centrifugation at 5000×g to generate the cell paste. […]
# Soluble rFAAH was purified from the supernatant using nickel (Ni), heparin and size exclusion chromatography (SEC) columns. […] Eluted samples were pooled, concentrated to ˜5 mg/mL and final rFAAH concentrations determined by measuring the absorbance at 280 nm, using an extinction coefficient of ϵ=60850 M^−1 cm^−1. […]
# The Ki of a test compound was determined for rat and human FAAH by measuring the dose dependent inhibition of AMC-Arachidonoyl amide hydrolysis as an end point read. Assays were carried out in Corning COSTAR® 384 well flat black bottom microtiter plates (Catalog #3654) and monitored in an Envision 2100 multilabel plate reader (Perkin Elmer-Wallac), with a 355 nm (40 nm band pass) excitation filter and 460 nm (25 nm bandpass) emission filter. […]
smiles,measurement,value
OB(O)c1ccc(-c2ccc(B(O)O)c(F)c2)cc1F [IMP-4],Ki,5.1 nM
